The text below walks through data of patent US20130289019A1, “METHODS OF TREATING BEHAVIORIAL AND/OR MENTAL DISORDERS” (AMAZING GRACE, INC., priority 2012, published 2013).

Entries after “also recorded” stand apart in the source; their conditions may differ. Marks after values point to notes of the source that are not given here.

The subject of test [1] is glutamatergic NMDA receptor in the NAc. As to the kind of experiment: NMDA receptor antagonists injected into the NAc (Rada et al. 2003). The format is in vivo. The following applies: Applicant's data (Rada et al. 2003). An excerpt: In the NAc, M2/M4 receptors are also located on glutamate-containing axonal terminals that originate from neurons located in corticolimbic and thalamic regions involved in depression and anxiety.

Test [2] relates to rats (NAcShell infusion). As to the kind of experiment: locomotor activity in the open field after bilateral fluoxetine infusion into NAcShell. Type of test: in vivo, rat.
Test [3] has as its system rats (NAc infusion). Description: swim test scores during bilateral fluoxetine infusion in the NAc. The format is in vivo, rat.
For test [4], the system named is ACh outflow in the NAcShell and swimming of rats. Description: local fluoxetine infusion in NAcShell: ACh outflow and swim test. Type of test: in vivo, rat.
The test system of test [5] is rats (basal extracellular ACh in the NAcShell, swim test). As to the kind of experiment: chronic systemic fluoxetine: basal extracellular ACh in NAcShell and swim test. The format is in vivo, rat.
In test [6] the test system is rats (NAcShell injection). As to the kind of experiment: locomotor activity in a photocell cage after drug injection in the NAcShell. The format is in vivo, rat. The conditions noted are these: 10 min following injection in NAcShell; arecoline 40 μg, pirenzepine 35 μg, scopolamine 1 μg, gallamine 0.88 μg. The protocol: FIG. 4 is a graph illustrating the effects of cholinergic drugs on locomotor activity in a photocell cage. Activity in the 10 min following drug injection in the NAcShell (black bars) is expressed as a percentage of control injections normalized to 100% (white bars).
FIG. 4 illustrates the effects of cholinergic drugs on locomotor activity in a photocell cage. Activity in the 10 min following drug injection in the NAc (black bars) is expressed as a percentage of control injections normalized to 100% (white bars).

In test [7] the test system is extracellular ACh in NAcShell. Description: ACh efflux in NAcShell, infusion by reverse dialysis in freely moving rats. The format is in vivo, rat. The protocol:
To determine if the M2 drugs act presynaptically on autoreceptors controlling ACh release, freely moving rats received infusions of an M2 agonist or antagonist in the NAcShell for 20 min by reverse dialysis while extracellular ACh was measured.
To determine if the M2 drugs act presynaptically on autoreceptors controlling ACh release, freely moving rats received infusions of an M2 agonist or antagonist in the NAc for 20 min by reverse dialysis while extracellular ACh was measured.

The test system of test [8] is patients with major depression and bipolar disorder. The conditions noted are these: cited from earlier work.
The test system of test [9] is rats (NAcShell injection). Description: Porsolt swim test after injection of mAChR agonists and antagonists in the NAcShell. Type of test: in vivo, rat. The following applies: for Drug (sec), mean swimming time / Percent change of swimming time vs Ringer / Time diff (sec), drug vs Ringer: 600 sec swim test. The protocol:
FIG. 3 is a graph illustrating swimming time following injections of cholinergic drugs in NAc (black bars), compared to Ringer (white bars). (A) Local injection of arecoline, a muscarinic agonist, decreased swim time; the animals quickly gave up (40 μg, −41%, n=8, t=3.53, p<0.01; and 80 μg, −66%, n=6, t=4.12, p<0.01). (B) Pirenzepine, an M1 antagonist, increased swimming escape attempts in the manner of an antidepressant, but note this is a local injection (17.5 μg, n=8, +39%, t=3.63, p<0.01; 35 μg, +40%, n=9, t=7.15, p<0.001). […] (D) Local gallamine, an M2 antagonist, decreased swim time (0.13 μg/side, −21%, n=7, t=3.72, p<0.01; 0.44 μg/side, −37%, n=8, t=2.95, p<0.05; 0.88 μg/side, −36%, n=7, t=4.64, p<0.01). Swimming time following Ringer is normalized to 100%, with each bar representing the mean of the normalized responses across subjects. Swimming time following a drug injection is expressed as a percentage of the swimming time following vehicle injection on a different day. Significant changes in the within-subject response to drug injections are indicated with asterisks (* p<0.05, ** p<0.01, *** p<0.001).
The Porsolt swim test is an animal model of depression widely used as a screen for drugs with potential antidepressant effects in humans and for elucidating the pharmacological mechanisms of action of antidepressant medications. For example, the following procedure may be used:
On the first day of this test (day 1), a rodent (typically a rat) is placed in a cylindrical water tank for 15 min. Then after 24 hours (day 2) and 48 hours (day 3), drug and Ringer are administered to the animal in counterbalanced order. Immediately following each injection, the animal is placed in the swim test for 10 min. The length of time it swims during the swim tests is recorded. “Swimming” is defined by escape behaviors (i.e. diving, rigorous paddling with all four legs, circling the tank, and clambering at the tank walls). ‘Immobility’ was scored as floating and treading water just enough to keep the nose above water. Typically, after the first swimming session, animals become behaviorally depressed as shown by swimming less on later test days (day 2 or 3). […] Antidepressants increase swimming without affecting locomotor activity, whereas non-antidepressant drugs such as certain psychostimulants may also decrease immobility, but also increase locomotor activity in the open field test. Therefore, to screen a potential antidepressant, the swim test is typically followed by test for hyperactivity in the open field.
Rats were placed in the 600 sec (10 min) swim test following injections of drugs in the NAcShell. When not swimming, rats floated or made minimal forepaw movements to keep their noses above water. Each rat received one drug counterbalanced with Ringer on a separate day. The shorter control swim times for the gallamine group, relative to groups that received other drugs, may have been due to a seasonal difference. Control injections, shown in the last line, were made 2 mm dorsal to the accumbens (Pirenzepine Ctrl). Asterisks indicate significant difference between drug and Ringer (* p<0.05; ** p<0.01; *** p<0.001).

Test [10] relates to NMDA receptor (depressed humans). The conditions noted are these: human trials (Zarate et al. 2006); cited from earlier work.
Setting [11] is: 0.2 mM bilateral in NAc, fluoxetine on Day 2 (Ringer Day 3).
Where [12] appears, read: 0.2 mM bilateral in NAc, fluoxetine on Day 3 (Ringer Day 2).
Setting [13] is: 0.2 mM bilateral in NAc, on Day 2 or Day 3 (combined).
[14] abbreviates: 0.5 mM bilateral in NAc, fluoxetine on Day 2 (Ringer Day 3).
[15] abbreviates: 0.5 mM bilateral in NAc, fluoxetine on Day 3 (Ringer Day 2).
Setting [16] is: 0.5 mM bilateral in NAc, on Day 2 or Day 3 (combined).
Setting [17] is: 0.75 mM bilateral in NAc, fluoxetine on Day 2 (Ringer Day 3).
Setting [18] is: 0.75 mM bilateral in NAc, fluoxetine on Day 3 (Ringer Day 2).
Setting [19] is: 0.75 mM bilateral in NAc, on Day 2 or Day 3 (combined).

For the compound `NC(CCCP(=O)(O)O)C(=O)O` (stereo not drawn) [AP-5], in test [1], the “effect on depression, in words” value is on record as “alleviate depression”.
With `CNCCC(Oc1ccc(C(F)(F)F)cc1)c1ccccc1` (stereo not drawn) [Fluoxetine], the “locomotor activity in the open field, in words” value in test [2] is on record as “does not affect locomotor activity”. Moreover, the “Climbing score, FLU” value in [3] (setting [11]) was 39 ± 12; in [3] (setting [12]), 60 ± 15; in [3] (setting [13]), 52 ± 10; in test [3] (setting [14]) it was 45 ± 12; in [3] (setting [15]) it was 74 ± 10; in test [3] (setting [16]) it was 61 ± 9. Also, the figures for the “Climbing score, FLU” value in test [3] (setting [17]), in test [3] (setting [18]) and in [3] (setting [19]) were 44 ± 10, 57 ± 9 and 57 ± 9, respectively. Besides, the “Immobility score, FLU” value in [3] (setting [11]) was determined as 66 ± 30; in test [3] (setting [12]) it was 45 ± 13; in test [3] (setting [13]), 53 ± 12; in test [3] (setting [14]) it was 68 ± 9; in test [3] (setting [15]), 39 ± 10; in test [3] (setting [16]) it was 51 ± 8. Also, the entries for the “Immobility score, FLU” value in test [3] (setting [17]), in test [3] (setting [18]) and in test [3] (setting [19]) were 62 ± 11, 53 ± 7 and 53 ± 7, respectively. Also, the “Swimming score, FLU” value came out at 15 ± 17 in [3] (setting [11]); 14 ± 8 in test [3] (setting [12]); 14 ± 7 in test [3] (setting [13]); 6 ± 3 in test [3] (setting [14]); 7 ± 6 in test [3] (setting [15]); 7 ± 3 in test [3] (setting [16]). The “Swimming score, FLU” value is reported as 14 ± 7 in test [3] (setting [17]), 10 ± 4 in test [3] (setting [18]) and 10 ± 4 in [3] (setting [19]). Moreover, the “immobility in the swim test, effect in words” value in [3] (bilateral infusion into NAcShell, dose-dependently) was “decreases immobility”; in test [4] (unilateral infusion into NAcShell) it was “decreases immobility”. For the same compound, the “swimming time greater than during Ringer” value in test [4] (1.0 mM local infusion in NAcShell, n=8) is recorded as 18.9%. Besides, in test [4] (1.0 mM local infusion in NAcShell, n=8, Ringer 277±44 sec), the “swimming time during fluoxetine” value is 329 ± 45 s. Moreover, in [4] (during and following 1.0 mM fluoxetine infusion, vs Ringer infusion or pretest), the “ACh outflow in the NAcShell, effect in words” value is “substantially lower; also recorded: decreases the extracellular level of ACh”. The “swimming plus climbing scores (total escape efforts)” value in [5] (following chronic fluoxetine treatment, saline 42±11) was 55±7. The “basal ACh level in the NAcShell, effect in words” value in [5] (low dose subcutaneously, daily over 14 days, rats in the forced swimming test) is recorded as “normalizes the chronic elevation in basal ACh level”.
As for `CN1[C@@H]2C[C@@H](OC(=O)[C@H](CO)c3ccccc3)C[C@H]1[C@@H]1O[C@@H]12` [Scopolamine], the “locomotor activity vs Ringer, in words” value in test [6] was “not significantly different from Ringer; also recorded: without altering activity in the open field”. Also, in test [7] (20 min infusion in NAcShell by reverse dialysis, oxotremorine 4 mM (hour following infusion), gallamine 1 mM, scopolamine 10 mM probe concentration), the “extracellular ACh” value is reported as 220 % of baseline. The “duration of the ACh increase (until return to baseline)” value in test [7] (gallamine 1 mM: time following the infusion, scopolamine 10 mM) is “more than 100 min”. In test [7] (inventor's data (Chau et al. 2001)), the “ACh level in the NAc, effect in words” value is “elevates ACh level in the NAc”. In addition, the “rate of remission in female patients” value in test [8] (human trials) was no more than 71%. The “duration of antidepressant/anti-anxiety effects” value in test [8] (one single dose) is “more than 17 days”. Moreover, in [8] (one single dose, patients with major depression and bipolar disorder), the “time to reduction of depression and anxiety” value was 3 to 5 days. In addition, the “Drug (sec), mean swimming time” value in test [9] (0.5 μg/side in NAcShell) is 306 ± 44 s; in test [9] (1.0 μg/side in NAcShell), 541 ± 13*** sec. The “Percent change of swimming time vs Ringer” value in test [9] (0.5 μg/side in NAcShell) is −12%; in test [9] (0.5 μg/side in NAcShell, listed as scopolamine) it was “N.S”; in test [9] (1.0 μg/side in NAcShell), “+50%”; in [9] (1.0 μg/side in NAcShell, listed as scopolamine), “+50%”. Further, the “Time diff (sec), drug vs Ringer” value is -44 s in test [9] (0.5 μg/side in NAcShell) and “+181 sec” in [9] (1.0 μg/side in NAcShell). In addition, in test [9] (infusion into the NAcShell), the “immobility in the swim test, effect in words” value is on record as “decreases immobility”.
As for `C[C@]12N[C@H](Cc3ccccc31)c1ccccc12` [dizocilpine], the “effect on depression, in words” value in test [1] was “alleviate depression”.
In the case of `CNC1(c2ccccc2Cl)CCCCC1=O` (stereo not drawn) [ketamine], in [10], the “antidepressant effect, in words” value was “rapid antidepressant effect”.
